Laboratory results taken from patent US20260374739A1, “SMALL MOLECULAR WEIGHT CHEMICAL COMPOUND TO ANTAGONIZE EPH-EPHRIN TETRAMERIZATION AND INHIBIT BIDIRECTIONAL SIGNALING” (THE BOARD OF REGENTS OF THE UNIVERSITY OF TEXAS SYSTEM, priority 2022, published 2026).
Several values for one entry are separate records, joined by “and”; a condition that tells them apart may be missing. Equal values may be shown once. Marks after values point to notes of the source that are not given here.

Molecular target: T1, EphrinB2-EphB2 (Homo sapiens, UniProt P29323)
T1 construct: soluble human EphB1-His, EphB2-His, and EphB4-His ectodomains; commercially available human EphrinB1-Fc (EB1), EphrinB2-Fc (EB2), and EphrinB3-Fc (EB3) ectodomain proteins; purchased
T1 sequence (P29323 19-543 limits assumed): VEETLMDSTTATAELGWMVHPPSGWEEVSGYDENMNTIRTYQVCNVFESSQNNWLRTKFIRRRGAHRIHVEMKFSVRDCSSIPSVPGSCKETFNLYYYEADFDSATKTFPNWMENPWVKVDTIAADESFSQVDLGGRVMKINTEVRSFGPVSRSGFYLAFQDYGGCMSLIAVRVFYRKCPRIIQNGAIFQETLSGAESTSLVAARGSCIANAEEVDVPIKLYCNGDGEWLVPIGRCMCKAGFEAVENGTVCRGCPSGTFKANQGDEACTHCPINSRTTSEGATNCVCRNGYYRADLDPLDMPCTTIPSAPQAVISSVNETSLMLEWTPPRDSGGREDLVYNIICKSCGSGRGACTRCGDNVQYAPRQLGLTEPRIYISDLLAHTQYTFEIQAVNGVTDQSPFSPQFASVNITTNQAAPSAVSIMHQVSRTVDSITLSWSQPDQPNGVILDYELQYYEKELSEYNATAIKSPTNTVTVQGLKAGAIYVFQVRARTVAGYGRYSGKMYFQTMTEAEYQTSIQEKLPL
Assay: Octet 80 sec association/500 sec dissociation, immobilized human EphrinB2-Fc binding to soluble human EphB2-His
Conditions: at 3.2 μM and 80 seconds; immobilized human EphrinB2; 25 nM soluble human EphB2
Outline: (§1)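 EphrinB2-Fc captured on AHC biosensors, then soluble His-tagged EphB ectodomain (25 nM for % inhibition runs) associated 80 s and dissociated 500 s in PBS, 0.05% Tween-20, 1% DMSO ± compound. Compounds tested at 0.1–3.2 μM with a 10 μM max standard; IC50 from AUC of full traces or at 75 s and 135 s.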

| EphB2 Inhibition Percent, Inhibition of Association ONLY | Compound |
| --- | --- |
| 48.1% | OCc1ccc2c(CN3CCOCC3)ccc(O)c2n1 [Compound 12, 2-(hydroxymethyl)-5-(morpholinomethyl)quinolin-8-ol] |
| 66.0% and 38.5% | Oc1ccc(CN2CCN(c3ccccc3)CC2)c2cccnc12 [Compound 23, 8-hydroxy-5-((4-phenylpiperazin-1-ium-1-yl)methyl)quinolin-1-ium chloride] |

| Compound | EphB2 Inhibition Percent, Inhibition of Association ONLY |
| --- | --- |
| Cc1ccc2c(CN3CCOCC3)cc(Br)c(O)c2n1 [Compound 57, 7-bromo-2-methyl-5-(morpholinomethyl)quinolin-8-ol] | 1.4% |

Same assay, conditions: at 3.2 μM and 580 seconds; immobilized human EphrinB2; 25 nM soluble human EphB2

| EphB2 Inhibition Percent, Inhibition of Association-Dissociation | Compound |
| --- | --- |
| 48.1% | OCc1ccc2c(CN3CCOCC3)ccc(O)c2n1 [Compound 12, 2-(hydroxymethyl)-5-(morpholinomethyl)quinolin-8-ol] |
| 79.1% and 49% | Oc1ccc(CN2CCN(c3ccccc3)CC2)c2cccnc12 [Compound 23, 8-hydroxy-5-((4-phenylpiperazin-1-ium-1-yl)methyl)quinolin-1-ium chloride] |

| Compound | EphB2 Inhibition Percent, Inhibition of Association-Dissociation |
| --- | --- |
| Cc1ccc2c(CN3CCOCC3)cc(Br)c(O)c2n1 [Compound 57, 7-bromo-2-methyl-5-(morpholinomethyl)quinolin-8-ol] | 20.3% |

Molecular target: T1, EphrinB2-EphB2
Assay: Octet tetramerization inhibition, immobilized human EphrinB2 binding to 50 nM soluble human EphB2
Conditions: Absolute AUC/IC50, Table A, EphrinB2-EphB2

| IC50 | Compound |
| --- | --- |
| > 3200 nM | OCc1ccc2c(CN3CCOCC3)ccc(O)c2n1 [Compound 12, 2-(hydroxymethyl)-5-(morpholinomethyl)quinolin-8-ol] |
| > 1600 nM | Oc1ccc(CN2CCN(c3ccccc3)CC2)c2cccnc12 [Compound 23, 8-hydroxy-5-((4-phenylpiperazin-1-ium-1-yl)methyl)quinolin-1-ium chloride] |

| Compound | IC50 |
| --- | --- |
| Cc1ccc2c(CN3CCOCC3)cc(Br)c(O)c2n1 [Compound 57, 7-bromo-2-methyl-5-(morpholinomethyl)quinolin-8-ol] | > 3200 nM |

Same assay, conditions: Absolute Association IC50 (300 sec), Table A, EphrinB2-EphB2

| IC50 | Compound |
| --- | --- |
| > 3200 nM | OCc1ccc2c(CN3CCOCC3)ccc(O)c2n1 [Compound 12, 2-(hydroxymethyl)-5-(morpholinomethyl)quinolin-8-ol] |
| > 1600 nM | Oc1ccc(CN2CCN(c3ccccc3)CC2)c2cccnc12 [Compound 23, 8-hydroxy-5-((4-phenylpiperazin-1-ium-1-yl)methyl)quinolin-1-ium chloride] |

| Compound | IC50 |
| --- | --- |
| Cc1ccc2c(CN3CCOCC3)cc(Br)c(O)c2n1 [Compound 57, 7-bromo-2-methyl-5-(morpholinomethyl)quinolin-8-ol] | > 3200 nM |

Same assay, conditions: Absolute Dissociation IC50 (450 sec), Table A, EphrinB2-EphB2

| IC50 | Compound |
| --- | --- |
| > 3200 nM | OCc1ccc2c(CN3CCOCC3)ccc(O)c2n1 [Compound 12, 2-(hydroxymethyl)-5-(morpholinomethyl)quinolin-8-ol] |
| > 1600 nM | Oc1ccc(CN2CCN(c3ccccc3)CC2)c2cccnc12 [Compound 23, 8-hydroxy-5-((4-phenylpiperazin-1-ium-1-yl)methyl)quinolin-1-ium chloride] |

| Compound | IC50 |
| --- | --- |
| Cc1ccc2c(CN3CCOCC3)cc(Br)c(O)c2n1 [Compound 57, 7-bromo-2-methyl-5-(morpholinomethyl)quinolin-8-ol] | > 3200 nM |

Same assay, conditions: Relative AUC/IC50, Table A, EphrinB2-EphB2; compound 7: association only

| IC50 | Compound |
| --- | --- |
| > 3200 nM | OCc1ccc2c(CN3CCOCC3)ccc(O)c2n1 [Compound 12, 2-(hydroxymethyl)-5-(morpholinomethyl)quinolin-8-ol] |
| > 1600 nM | Oc1ccc(CN2CCN(c3ccccc3)CC2)c2cccnc12 [Compound 23, 8-hydroxy-5-((4-phenylpiperazin-1-ium-1-yl)methyl)quinolin-1-ium chloride] |

| Compound | IC50 |
| --- | --- |
| Cc1ccc2c(CN3CCOCC3)cc(Br)c(O)c2n1 [Compound 57, 7-bromo-2-methyl-5-(morpholinomethyl)quinolin-8-ol] | 2240 nM |

Same assay, conditions: Relative Association IC50 (300 sec), Table A, EphrinB2-EphB2

| IC50 | Compound |
| --- | --- |
| 2750 nM | OCc1ccc2c(CN3CCOCC3)ccc(O)c2n1 [Compound 12, 2-(hydroxymethyl)-5-(morpholinomethyl)quinolin-8-ol] |
| > 1600 nM | Oc1ccc(CN2CCN(c3ccccc3)CC2)c2cccnc12 [Compound 23, 8-hydroxy-5-((4-phenylpiperazin-1-ium-1-yl)methyl)quinolin-1-ium chloride] |

| Compound | IC50 |
| --- | --- |
| Cc1ccc2c(CN3CCOCC3)cc(Br)c(O)c2n1 [Compound 57, 7-bromo-2-methyl-5-(morpholinomethyl)quinolin-8-ol] | > 3200 nM |

Same assay, conditions: Relative Dissociation IC50 (450 sec), Table A, EphrinB2-EphB2

| IC50 | Compound |
| --- | --- |
| 1480 nM | OCc1ccc2c(CN3CCOCC3)ccc(O)c2n1 [Compound 12, 2-(hydroxymethyl)-5-(morpholinomethyl)quinolin-8-ol] |
| > 1600 nM | Oc1ccc(CN2CCN(c3ccccc3)CC2)c2cccnc12 [Compound 23, 8-hydroxy-5-((4-phenylpiperazin-1-ium-1-yl)methyl)quinolin-1-ium chloride] |

| Compound | IC50 |
| --- | --- |
| Cc1ccc2c(CN3CCOCC3)cc(Br)c(O)c2n1 [Compound 57, 7-bromo-2-methyl-5-(morpholinomethyl)quinolin-8-ol] | > 3200 nM |

Same assay, conditions: tetramerization inhibitor IC50 (relative), association step; surmountable tetramer

| Compound | IC50 |
| --- | --- |
| OCc1ccc2c(CN3CCOCC3)ccc(O)c2n1 [Compound 12, 2-(hydroxymethyl)-5-(morpholinomethyl)quinolin-8-ol] | ~3000 nM |
| Cc1ccc2c(CN3CCOCC3)cc(Br)c(O)c2n1 [Compound 57, 7-bromo-2-methyl-5-(morpholinomethyl)quinolin-8-ol] | > 3000 nM |

Molecular target: T2, EphrinB2-EphB4 (Homo sapiens, UniProt P54760)
T2 construct: soluble human EphB1-His, EphB2-His, and EphB4-His ectodomains; commercially available human EphrinB1-Fc (EB1), EphrinB2-Fc (EB2), and EphrinB3-Fc (EB3) ectodomain proteins; purchased
T2 sequence (P54760 16-539 limits assumed): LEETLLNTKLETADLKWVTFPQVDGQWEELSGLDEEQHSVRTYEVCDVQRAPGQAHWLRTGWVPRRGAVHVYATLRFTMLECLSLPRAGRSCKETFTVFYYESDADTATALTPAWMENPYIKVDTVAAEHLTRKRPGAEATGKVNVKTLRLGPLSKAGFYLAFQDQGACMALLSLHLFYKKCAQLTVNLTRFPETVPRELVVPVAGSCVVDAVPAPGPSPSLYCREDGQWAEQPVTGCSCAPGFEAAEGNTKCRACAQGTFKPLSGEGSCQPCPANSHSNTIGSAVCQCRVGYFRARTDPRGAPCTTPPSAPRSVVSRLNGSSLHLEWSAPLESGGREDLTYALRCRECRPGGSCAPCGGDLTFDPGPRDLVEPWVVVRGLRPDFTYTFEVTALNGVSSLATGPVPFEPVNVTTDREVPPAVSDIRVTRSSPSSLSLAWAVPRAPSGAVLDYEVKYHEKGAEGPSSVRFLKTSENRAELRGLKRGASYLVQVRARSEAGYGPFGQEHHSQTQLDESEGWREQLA
Assay: Octet 80 sec association/500 sec dissociation, immobilized human EphrinB2-Fc binding to soluble human EphB4-His
Conditions: at 3.2 μM and 80 seconds; immobilized human EphrinB2; 25 nM soluble human EphB4
Outline: as §1

| EphB4 Inhibition Percent, Inhibition of Association ONLY | Compound |
| --- | --- |
| 11.0% | OCc1ccc2c(CN3CCOCC3)ccc(O)c2n1 [Compound 12, 2-(hydroxymethyl)-5-(morpholinomethyl)quinolin-8-ol] |
| 23.1% and 12.1% | Oc1ccc(CN2CCN(c3ccccc3)CC2)c2cccnc12 [Compound 23, 8-hydroxy-5-((4-phenylpiperazin-1-ium-1-yl)methyl)quinolin-1-ium chloride] |

| Compound | EphB4 Inhibition Percent, Inhibition of Association ONLY |
| --- | --- |
| Cc1ccc2c(CN3CCOCC3)cc(Br)c(O)c2n1 [Compound 57, 7-bromo-2-methyl-5-(morpholinomethyl)quinolin-8-ol] | 0*% |

Same assay, conditions: at 3.2 μM and 580 seconds; immobilized human EphrinB2; 25 nM soluble human EphB4

| EphB4 Inhibition Percent, Inhibition of Association-Dissociation | Compound |
| --- | --- |
| 11.0% | OCc1ccc2c(CN3CCOCC3)ccc(O)c2n1 [Compound 12, 2-(hydroxymethyl)-5-(morpholinomethyl)quinolin-8-ol] |
| 26.7% and 17.9% | Oc1ccc(CN2CCN(c3ccccc3)CC2)c2cccnc12 [Compound 23, 8-hydroxy-5-((4-phenylpiperazin-1-ium-1-yl)methyl)quinolin-1-ium chloride] |

| Compound | EphB4 Inhibition Percent, Inhibition of Association-Dissociation |
| --- | --- |
| Cc1ccc2c(CN3CCOCC3)cc(Br)c(O)c2n1 [Compound 57, 7-bromo-2-methyl-5-(morpholinomethyl)quinolin-8-ol] | 8.7% |

Molecular target: T3, EphrinB2-EphB1 (Homo sapiens, UniProt P54762)
T3 construct: soluble human EphB1-His, EphB2-His, and EphB4-His ectodomains; commercially available human EphrinB1-Fc (EB1), EphrinB2-Fc (EB2), and EphrinB3-Fc (EB3) ectodomain proteins; purchased
T3 sequence (P54762 18-540 limits assumed): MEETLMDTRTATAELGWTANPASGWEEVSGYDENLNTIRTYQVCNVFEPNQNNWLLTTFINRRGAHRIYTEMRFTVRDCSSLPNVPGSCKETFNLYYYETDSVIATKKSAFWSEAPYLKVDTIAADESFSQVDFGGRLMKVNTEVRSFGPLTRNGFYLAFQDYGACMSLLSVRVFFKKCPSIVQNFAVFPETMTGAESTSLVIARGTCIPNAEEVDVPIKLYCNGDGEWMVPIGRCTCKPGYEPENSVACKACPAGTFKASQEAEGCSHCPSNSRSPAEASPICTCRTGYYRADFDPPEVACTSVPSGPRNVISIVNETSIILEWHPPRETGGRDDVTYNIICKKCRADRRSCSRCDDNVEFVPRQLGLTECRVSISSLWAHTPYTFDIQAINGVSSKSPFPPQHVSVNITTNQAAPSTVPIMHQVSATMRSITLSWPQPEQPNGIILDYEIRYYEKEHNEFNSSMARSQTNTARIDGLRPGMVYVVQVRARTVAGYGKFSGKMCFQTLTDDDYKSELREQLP
Assay: Octet 80 sec association/500 sec dissociation, immobilized human EphrinB2-Fc binding to soluble human EphB1-His
Conditions: at 3.2 μM and 80 seconds; immobilized human EphrinB2; 25 nM soluble human EphB1
Outline: as §1

| EphB1 Inhibition Percent, Inhibition of Association ONLY | Compound |
| --- | --- |
| 17.4% | OCc1ccc2c(CN3CCOCC3)ccc(O)c2n1 [Compound 12, 2-(hydroxymethyl)-5-(morpholinomethyl)quinolin-8-ol] |
| 30.8% and 16.2% | Oc1ccc(CN2CCN(c3ccccc3)CC2)c2cccnc12 [Compound 23, 8-hydroxy-5-((4-phenylpiperazin-1-ium-1-yl)methyl)quinolin-1-ium chloride] |

| Compound | EphB1 Inhibition Percent, Inhibition of Association ONLY |
| --- | --- |
| Cc1ccc2c(CN3CCOCC3)cc(Br)c(O)c2n1 [Compound 57, 7-bromo-2-methyl-5-(morpholinomethyl)quinolin-8-ol] | 0*% |

Same assay, conditions: at 3.2 μM and 580 seconds; immobilized human EphrinB2; 25 nM soluble human EphB1

| EphB1 Inhibition Percent, Inhibition of Association-Dissociation | Compound |
| --- | --- |
| 17.4% | OCc1ccc2c(CN3CCOCC3)ccc(O)c2n1 [Compound 12, 2-(hydroxymethyl)-5-(morpholinomethyl)quinolin-8-ol] |
| 41.2% and 24.8% | Oc1ccc(CN2CCN(c3ccccc3)CC2)c2cccnc12 [Compound 23, 8-hydroxy-5-((4-phenylpiperazin-1-ium-1-yl)methyl)quinolin-1-ium chloride] |

| Compound | EphB1 Inhibition Percent, Inhibition of Association-Dissociation |
| --- | --- |
| Cc1ccc2c(CN3CCOCC3)cc(Br)c(O)c2n1 [Compound 57, 7-bromo-2-methyl-5-(morpholinomethyl)quinolin-8-ol] | 15.3% |
